Data as given in article PMC5065625, “Structure-mechanism-based engineering of chemical regulators targeting distinct pathological factors in Alzheimer's disease” (Nature Communications, 2016).

Tests used:
[1] = UV–vis variable-pH titration of Cu(II)–2 (binding affinity)
Protocol: The pKa value for 2 was determined by UV–vis variable-pH titrations as previously reported. To establish the pKa value, a solution (10 mM NaOH, pH 12, 100 mM NaCl) of 2 (100 μM) was titrated with small amounts of HCl. At least 30 spectra were recorded in the range of pH 2–10. Similarly, a solution containing CuCl2 and 2 (50 μM) in a metal to ligand ratio of 1:2 was titrated with small additions of HCl and at least 30 spectra were recorded over the range pH 2–7. The acidity and stability constants were calculated by using the HypSpec program (Protonic Software, UK)[56]. Speciation diagrams were modelled in the HySS2009 program (Protonic Software)[57].

[2] = Cell viability (MTT assay), compounds with and without metal ions; type: cell-based, human; settings: human, SK-N-BE(2)-M17 (M17) neuroblastoma cells; M17 cells, in the absence of Cu(II), 48 and 72 h
Protocol: The M17 cell line was purchased from the American Type Culture Collection (ATCC, Manassas, VA, USA). The cell line was maintained in media containing 50% minimum essential medium and 50% F12 (GIBCO, Grand Island, NY, USA), supplemented with 10% fetal bovine serum (Sigma), 100 U ml^−1 penicillin, and […] streptomycin (GIBCO). The cells were grown and maintained at 37 °C in a humidified atmosphere with 5% CO2. […] Cell viability upon treatment of compounds was determined using the MTT assay (Sigma). M17 cells were seeded in a 96-well plate (15,000 cells in 100 μl per well). The cells were treated with Aβ (20 μM) with or without CuCl2 or ZnCl2 (20 μM), followed by the addition of compounds (20 μM, 1% v/v final DMSO concentration), and incubated for 24 h. After incubation, 25 μl MTT (5 mg ml^−1 in phosphate buffered saline (PBS, pH 7.4, GIBCO) was added to each well and the plate was incubated for 4 h at 37 °C. Formazan produced by the cells was solubilized using an acidic solution of N,N-dimethylformamide (DMF, 50%, v/v aq) and SDS (20%, w/v) overnight at room temperature in the dark. The absorbance was measured at 600 nm using a microplate reader. Cell viability was calculated relative to cells containing an equivalent amount of DMSO.

metal-free Aβ40/Aβ42 = metal-free Aβ40/Aβ42 (Homo sapiens, UniProt P05067); experiment: Aβ aggregation inhibition/disaggregation experiments (gel/western blot, TEM), metal-free; type: biochemical; settings: Aβ 25 μM, compound 50 μM, 37 °C, 24 h; gel/western blot and TEM
Protocol: The ability of 1–4 to control the aggregation of both metal-free Aβ and metal-Aβ in inhibition (Fig. 2) and disaggregation experiments (Supplementary Fig. 1) was evaluated using the two major Aβ isoforms (Aβ40/Aβ42)[1][2][3][6][16] found in the AD-affected brain. Molecular weight (MW) distributions and morphologies of the resulting Aβ species were determined by gel electrophoresis followed by western blotting (gel/western blot) and transmission electron microscopy (TEM). Generally, under the experimental conditions employed herein, compound-free Aβ samples with and without metal ions assemble into a distribution of large aggregates that are too big to penetrate into the gel matrix, which yields very little smearing in the gel/western blots, but they can be visualized by TEM. […]
Before experiments, Aβ40 or Aβ42 was dissolved in ammonium hydroxide (NH4OH; 1% v/v, aq). […] The concentration of the solution was determined by measuring the absorbance of the solution at 280 nm (ɛ=1,450 M^–1 cm^–1 for Aβ40; ɛ=1,490 M^–1 cm^–1 for Aβ42). […]
The Aβ samples from in vivo or in vitro experiments were analysed by gel electrophoresis followed by western blotting using an anti-Aβ antibody (6E10)[24][25][27][28][29]. […]

metal-free Aβ40/Aβ42, sequence (P05067 672-711 limits assumed): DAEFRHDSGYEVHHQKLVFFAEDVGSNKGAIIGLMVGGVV

logβ (Cu + L = CuL) ([1]; Cu(II):L = 1:2, [2] = 50 μM)	Approximate dissociation constant for Cu(II), 1:1 complex ([1]; UV–vis variable-pH titrations)	pCu (=−log[Cu(II)]free) ([1]; pH 6.6)	Compound	viability at up to 20 μM [2] [%]	Modulation of metal-free Aβ aggregation (metal-free Aβ40/Aβ42)
5.6(8)	micromolar range	6.24	COc1cc(NCc2ccccn2)cc(OC)c1 [compound 2, 3,5-dimethoxy-N-(pyridin-2-ylmethyl)aniline]	–	–
–	–	–	CN(C)c1ccc(NCc2ccc[nH]2)cc1 [compound 4, N^1-((1H-pyrrol-2-yl)methyl)-N^4,N^4-dimethylbenzene-1,4-diamine]	~60	pronounced influence on metal-free Aβ aggregation
